Data published in patent US20100159449A1, “Continuous Assay Method for Measuring Receptor- and Ion Channel-Mediated Calcium Response and Subsequent Gene Expression” (NOACELL SCIENCE CO., LTD., priority 2006, published 2010).
Where a name gives a salt, the structure may show the parent alone. One block for each compound: values may come before it.

Columns and labels:
purine receptors [1] = assay: cAMP-responding (CRE) Renilla luciferase reporter assay in CHO cells expressing purine receptors; format: cell-based; conditions: ATP 10^-3 to 10^-9 M, six hours later, EnduRen substrate (FIG. 4)
Method: (§1) To begin with, plasmids (pcDNA MtAEQ, pcDNA Gα16, and pGL3 CRE-Renilla) were introduced into CHO cells. […] The results are graphed in FIGS. 3 and 4.
(§2) In detail, a CHO cell line (ATCC-deposited cells) that expresses purine receptors was seeded into 10 cm^2 Petri dishes at a 1.5×10^5 cells/ml cellular concentration.
(§3) The next day, 2.2 μg Gα16 (pcDNA Gα16), 3 μg aequorin-expressing plasmids (pcDNA MtAequorin), and 3 μg cAMP-responding Renilla luciferase plasmids (pGL3 CRE-Renilla) were transfected into each Petri dish employing 18 μL of FuGENE® 6 (by Roche Diagnostics).
(§4) The following day, 400 μL of trypsin/EDTA solution was added to the Petri dishes, and the cells were dissociated and suspended in 13 mL of DMEM/F12 FCS nutrient broth. […] Thereafter culturing was continued, and the results six hours later of measuring the activity of Renilla luciferase with the ARVO were diagrammed (FIG. 4). […] It will be understood that, with no induction of cAMP-mediated Renilla luciferase occurring, the purine receptors were Gq-coupled GPCRs.

purine receptors [2] = assay: aequorin-mediated calcium response (flash luminescence) in transfected CHO cells; format: cell-based; conditions: ATP 10^-3 to 10^-9 M, 30 seconds after addition, EnduRen or wildtype coelenterazine as substrate (FIG. 9)
Method: as §1, §2, §3, §4
Wildtype coelenterazine and, as a stable substrate, EnduRen™ were employed as luminescent substrates for enzymes, and the continuous-measurement regimes were compared. Plasmids were introduced into CHO cells. […]

[3] = target: dopamine receptors (D2RS) (Homo sapiens, UniProt P14416); conditions: D2RS-expressing CHO cells; dopamine 10^-3 to 10^-9 M; following day forskolin added, six hours culturing (FIG. 8)
Method: To begin with, plasmids were introduced into dopamine-receptor (D2RS) expressing cells. Following an overnight culturing, EnduRen™ was added as a substrate, the combination was cultivated four hours, and from 10^−3 to 10^−9 M sample (dopamine) was added.
In detail, dopamine receptors (D2RS) were transfected into a CHO cell line (ATCC-deposited cells), and, in the same manner as in Embodiment 1, Gα16, aequorin-expressing plasmids, and cAMP-responding Renilla luciferase plasmids were transfected into the stably expressing cell line and the cell suspension solution was adjusted.
The following day, 10 μL of 10^−5 M forskolin was added, and culturing was continued for six hours. The results of measuring the activity of Renilla luciferase were diagrammed (FIG. 8). In FIG. 8, the vertical axis indicates the per-second luminescent intensity (count per second), and the horizontal axis, the dopamine concentration.

[4] = target: serotonin receptor (5HT2A) (Homo sapiens, UniProt P28223); assay: cAMP-responding (CRE) Renilla luciferase reporter assay in serotonin-receptor expressing CHO cells; format: cell-based; conditions: 5HT2A-expressing CHO cells; serotonin 2.5x10^-6 to 2.5x10^-12 M; culturing six hours; EnduRen substrate (FIG. 6)
Chain of serotonin receptor (5HT2A) (P28223 whole entry, species assumed): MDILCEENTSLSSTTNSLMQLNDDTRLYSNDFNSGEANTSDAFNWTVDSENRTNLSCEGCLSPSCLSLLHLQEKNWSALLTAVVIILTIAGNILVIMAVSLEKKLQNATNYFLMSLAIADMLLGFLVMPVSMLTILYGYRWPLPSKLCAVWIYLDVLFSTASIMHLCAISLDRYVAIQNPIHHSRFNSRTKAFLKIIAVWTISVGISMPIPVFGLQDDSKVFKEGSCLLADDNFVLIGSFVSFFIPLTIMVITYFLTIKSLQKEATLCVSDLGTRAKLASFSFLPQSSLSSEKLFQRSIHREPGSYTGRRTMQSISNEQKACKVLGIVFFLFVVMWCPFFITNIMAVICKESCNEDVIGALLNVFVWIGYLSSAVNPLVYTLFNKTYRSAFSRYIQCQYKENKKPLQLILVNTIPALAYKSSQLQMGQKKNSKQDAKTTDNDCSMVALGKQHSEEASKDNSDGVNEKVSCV
Method: To begin with, plasmids (pcDNA MtAEQ, pcDNA Gα16, and pGL3 CRE-Renilla) were introduced into serotonin-receptor (5HT2A) expressing cells. Following an overnight culturing, EnduRen™ was added as a substrate, the combination was cultivated four hours, and from 2.5×10^−6 to 2.5×10^−12 M sample (serotonin) was added. For 30 seconds directly post-addition, the aequorin-mediated luminescence was continuously measured.
In detail, a serotonin receptor (5HT2A) was transfected into a CHO cell line (ATCC-deposited cells), and, in the same manner as in Embodiment 1, Gα16, aequorin-expressing plasmids, and cAMP-responding Renilla luciferase plasmids were transfected into the stably expressing cell line and the cell suspension solution was adjusted.
As a stable substrate, 30 μm EnduRen™ was added, and after four hours' culturing, 90 μL of the cell suspension solution was added into each well of a 96-well plate into which 10 μL serotonin hydrochloride as serotonin-receptor ligands had been added at 2.5×10^−6 to 2.5×10^−12 M concentration. Results of measuring the change in luminescent intensity for 30 seconds immediately following the suspension addition, employing the ARVO luminometer by Berthold Technologies GmbH, were diagrammed (FIG. 5). In FIG. 5, the vertical axis indicates the per-second luminescent intensity (count per second), and the horizontal axis, the measuring time (seconds). […]

Chain of dopamine receptors (D2RS) (P14416 1-414 isoform P14416-2): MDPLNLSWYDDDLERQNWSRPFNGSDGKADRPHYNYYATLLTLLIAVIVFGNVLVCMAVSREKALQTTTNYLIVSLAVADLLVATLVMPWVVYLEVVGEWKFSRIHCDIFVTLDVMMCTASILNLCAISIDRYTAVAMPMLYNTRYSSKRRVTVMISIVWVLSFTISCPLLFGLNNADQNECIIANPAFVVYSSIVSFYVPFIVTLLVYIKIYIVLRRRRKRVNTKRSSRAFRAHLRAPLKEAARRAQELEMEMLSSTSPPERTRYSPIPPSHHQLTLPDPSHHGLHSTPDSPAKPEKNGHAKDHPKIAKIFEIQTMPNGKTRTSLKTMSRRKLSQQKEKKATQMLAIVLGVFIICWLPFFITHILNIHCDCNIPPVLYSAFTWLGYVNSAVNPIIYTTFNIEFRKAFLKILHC

SMILES: Nc1ncnc2c1ncn2[C@@H]1O[C@H](COP(=O)([O-])OP(=O)([O-])OP(=O)(O)O)[C@@H](O)[C@H]1O.O.[Na+].[Na+] [ATP, adenosine 5′-triphosphate disodium hydrate]
induction of cAMP-mediated Renilla luciferase (purine receptors [1]): no induction
ATP-stimulated calcium response by aequorin luminescence (purine receptors [2]): calcium response can be measured

forskolin-stimulated activity of Renilla luciferase [3]: declined
SMILES: Cl.NCCc1ccc(O)c(O)c1 [dopamine, dopamine hydrochloride]

SMILES: NCCc1c[nH]c2ccc(O)cc12 [serotonin, serotonin hydrochloride]
cAMP-mediated increase in (induction of) Renilla luciferase [4]: increase in (induction of) Renilla luciferase was confirmed
